Several values for one entry are separate records, joined by “and”; a condition that tells them apart may be missing. Equal values may be shown once. Toxic doses and inconclusive results are not listed. Square brackets hold non-standard residues; d marks the D form. Peptide text beside a SMILES is read from it. * marks the point of attachment. Cbz = O=C(OCc1ccccc1)*; OBn = c1ccc(CO*)cc1; Sar = CNCC(=O)O
Tested on: L1210 leukemia ip in BDF1 mice, survival T/C
Assay: NCI In Vivo Anticancer Drug Screen. Data for tumor model L1210 Leukemia (intraperitoneal) in B6D2F1 (BDF1) mice
Details: endpoint: mean survival time, higher = longer survival
Method in brief: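 Transplantable tumor model; survival measured in treated vs vehicle control mice. Value = treated/control.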

[1] = dose: 100.0 mg/kg/injection, schedule: Q01DX009 (ip), vehicle: Klucel (hydroxypropylcellulose) (HPC)
[2] = dose: 100.0 mg/kg/injection, schedule: Q04DX003 (ip), vehicle: saline
[3] = dose: 200.0 mg/kg/injection, schedule: Q04DX003 (ip), vehicle: saline
[4] = dose: 100.0 mg/kg/injection, schedule: Q04DX003 (ip), vehicle: saline with Tween-80
[5] = dose: 200.0 mg/kg/injection, schedule: Q04DX003 (ip), vehicle: saline with Tween-80
[6] = dose: 400.0 mg/kg/injection, schedule: Q04DX003 (ip), vehicle: saline with Tween-80
[7] = dose: 50.0 mg/kg/injection, schedule: Q04DX002 (ip), vehicle: Klucel (hydroxypropylcellulose) (HPC)
[8] = dose: 100.0 mg/kg/injection, schedule: Q01DX009 (ip), vehicle: saline
[9] = dose: 200.0 mg/kg/injection, schedule: Q01DX009 (ip), vehicle: saline

With c1ncc(OCCN2CC2)nc1OCCN1CC1 the T/C (dose: 0.12 mg/kg/injection, schedule: Q01DX009 (ip), vehicle: carboxymethylcellulose (CMC)) was 102 % of control, the T/C (dose: 0.25 mg/kg/injection, schedule: Q01DX009 (ip), vehicle: carboxymethylcellulose (CMC)) was 108 % of control and the T/C (dose: 0.5 mg/kg/injection, schedule: Q01DX009 (ip), vehicle: carboxymethylcellulose (CMC)) was 102 % of control. For the same compound, the T/C (dose: 0.5 mg/kg/injection, schedule: Q01DX009 (ip), vehicle: saline) was 97 % of control, the T/C (dose: 1.0 mg/kg/injection, schedule: Q01DX009 (ip), vehicle: carboxymethylcellulose (CMC)) was 95 % of control and the T/C (dose: 1.0 mg/kg/injection, schedule: Q01DX009 (ip), vehicle: saline) was 97 % of control. The T/C (dose: 3.0 mg/kg/injection, schedule: Q01DX009 (ip), vehicle: saline) was 156 % of control, the T/C (dose: 11.1 mg/kg/injection, schedule: Q01DX001 (ip), vehicle: carboxymethylcellulose (CMC)) was 124 % of control and the T/C (dose: 11.1 mg/kg/injection, schedule: Q01DX001 (ip), vehicle: saline) was 120 % of control.
With CCN(CC)C(=O)c1cccc(COc2ccc(N3C(N)=NC(N)=NC3(C)C)cc2Cl)c1 the T/C (dose: 25.0 mg/kg/injection, schedule: Q01DX009 (ip), vehicle: saline with Tween-80) was 107 % of control and the T/C (dose: 50.0 mg/kg/injection, schedule: Q01DX009 (ip), vehicle: saline with Tween-80) was 107 % of control.
For NNc1ncnc2c(C3OC(CO)C(O)C3O)[nH]nc12 (centres undefined), the T/C (dose: 12.5 mg/kg/injection, schedule: Q01DX009 (ip), vehicle: Klucel (hydroxypropylcellulose) (HPC)) was 111 % of control, the T/C (dose: 20.0 mg/kg/injection, schedule: Q01DX009 (ip), vehicle: water) was 107 % of control and the T/C (dose: 25.0 mg/kg/injection, schedule: Q01DX005 (ip), vehicle: Klucel (hydroxypropylcellulose) (HPC)) was 118 % of control. For the same compound, the T/C (dose: 30.0 mg/kg/injection, schedule: Q01DX009 (ip), vehicle: water) was 107 % of control, the T/C (dose: 45.0 mg/kg/injection, schedule: Q01DX009 (ip), vehicle: water) was 112 % of control and the T/C (dose: 50.0 mg/kg/injection, schedule: Q01DX005 (ip), vehicle: Klucel (hydroxypropylcellulose) (HPC)) was 124 % of control. For the same compound, the T/C (dose: 50.0 mg/kg/injection, schedule: Q01DX005 (ip), vehicle: saline) was 118 % of control, the T/C (dose: 50.0 mg/kg/injection, schedule: Q01DX009 (ip), vehicle: Klucel (hydroxypropylcellulose) (HPC)) was 113 % of control and the T/C (dose: 67.0 mg/kg/injection, schedule: Q01DX009 (ip), vehicle: water) was 122 % of control. For the same compound, the T/C [1] was 122 % of control, the T/C [2] was 118 % of control and the T/C (dose: 100.0 mg/kg/injection, schedule: Q08DX002 (ip), vehicle: saline) was 102 % of control. For the same compound, the T/C (dose: 150.0 mg/kg/injection, schedule: Q01DX009 (ip), vehicle: saline) was 120 % of control, the T/C (dose: 200.0 mg/kg/injection, schedule: Q01DX005 (ip), vehicle: Klucel (hydroxypropylcellulose) (HPC)) was 106 % of control and the T/C (dose: 200.0 mg/kg/injection, schedule: Q01DX005 (ip), vehicle: saline) was 106 % of control. The T/C [3] was 122 % of control, the T/C (dose: 200.0 mg/kg/injection, schedule: Q08DX002 (ip), vehicle: saline) was 122 % of control and the T/C (dose: 800.0 mg/kg/injection, schedule: Q08DX002 (ip), vehicle: saline) was 104 % of control.
For CCN(CC)CCCCNc1ccc(NCCCCN(CC)CC)c2c1C(=O)c1ccccc1C2=O, the T/C (dose: 25.0 mg/kg/injection, schedule: Q04DX002 (ip), vehicle: alcohol) was 106 % of control, the T/C (dose: 50.0 mg/kg/injection, schedule: Q04DX002 (ip), vehicle: alcohol) was 95 % of control and the T/C (dose: 100.0 mg/kg/injection, schedule: Q04DX002 (ip), vehicle: alcohol) was 92 % of control.
In the case of CNC(=O)c1ccccc1N, the T/C [4] is reported as 100 % of control, the T/C [5] is reported as 95 % of control and the T/C [6] is reported as 98 % of control.
With CNC(=O)Nc1nc2ccccc2s1 the T/C [7] was 91 % of control, the T/C [1] was 103 % of control and the T/C (dose: 100.0 mg/kg/injection, schedule: Q04DX002 (ip), vehicle: Klucel (hydroxypropylcellulose) (HPC)) was 97 % of control and 98 % of control. For the same compound, the T/C (dose: 200.0 mg/kg/injection, schedule: Q01DX009 (ip), vehicle: Klucel (hydroxypropylcellulose) (HPC)) was 93 % of control, the T/C (dose: 200.0 mg/kg/injection, schedule: Q04DX002 (ip), vehicle: Klucel (hydroxypropylcellulose) (HPC)) was 94 % of control and the T/C (dose: 400.0 mg/kg/injection, schedule: Q01DX009 (ip), vehicle: Klucel (hydroxypropylcellulose) (HPC)) was 93 % of control. The T/C (dose: 400.0 mg/kg/injection, schedule: Q04DX002 (ip), vehicle: Klucel (hydroxypropylcellulose) (HPC)) was 90 % of control.
In the case of C[C@H](CCC(=O)O)[C@H]1CC[C@H]2[C@@H]3CCC4=C(O)C(=O)CC[C@]4(C)[C@H]3CC(=O)[C@]12C, the T/C (dose: 100.0 mg/kg/injection, schedule: Q01DX001 (sc), vehicle: steriod suspending solution) is reported as 101 % of control, the T/C (dose: 200.0 mg/kg/injection, schedule: Q01DX001 (sc), vehicle: steriod suspending solution) is reported as 98 % of control and the T/C (dose: 400.0 mg/kg/injection, schedule: Q01DX001 (sc), vehicle: steriod suspending solution) is reported as 103 % of control.
In the case of CC1CN(C(C)C)C1, the T/C (dose: 100.0 mg/kg/injection, schedule: Q01DX001 (ip), vehicle: acetone) is reported as 101 % of control and the T/C (dose: 200.0 mg/kg/injection, schedule: Q01DX001 (ip), vehicle: acetone) is reported as 97 % of control.
With CC(=O)O/N=C(\C)C12CCCCC1C(O)CCC2 (centres undefined) the T/C (dose: 100.0 mg/kg/injection, schedule: Q01DX001 (ip), vehicle: saline) was 91 % of control, the T/C [2] was 94 % of control and the T/C (dose: 200.0 mg/kg/injection, schedule: Q01DX001 (ip), vehicle: saline) was 91 % of control. The T/C [3] was 101 % of control, the T/C (dose: 400.0 mg/kg/injection, schedule: Q01DX001 (ip), vehicle: saline) was 91 % of control and the T/C (dose: 400.0 mg/kg/injection, schedule: Q04DX003 (ip), vehicle: saline) was 104 % of control.
With O=C(CCN1CC1)Nc1ccc(NC(=O)CCN2CC2)cc1 the T/C (dose: 2.0 mg/kg/injection, schedule: Q01DX009 (ip), vehicle: Klucel (hydroxypropylcellulose) (HPC)) was 121 % of control, the T/C (dose: 3.0 mg/kg/injection, schedule: Q01DX009 (ip), vehicle: Klucel (hydroxypropylcellulose) (HPC)) was 156 % of control and the T/C (dose: 6.6 mg/kg/injection, schedule: Q01DX009 (ip), vehicle: Klucel (hydroxypropylcellulose) (HPC)) was 184 % of control. The T/C (dose: 10.0 mg/kg/injection, schedule: Q04DX003 (ip), vehicle: Klucel (hydroxypropylcellulose) (HPC)) was 115 % of control, the T/C (dose: 20.0 mg/kg/injection, schedule: Q01DX009 (ip), vehicle: Klucel (hydroxypropylcellulose) (HPC)) was 97 % of control and the T/C (dose: 40.0 mg/kg/injection, schedule: Q04DX003 (ip), vehicle: Klucel (hydroxypropylcellulose) (HPC)) was 171 % of control and 181 % of control.
For COC(=O)C(Br)C(C)OC (centres undefined), the T/C [8] was 96 % of control and the T/C [9] was 101 % of control.
CC12CCC(C(=O)CC1=O)C2(C)C (centres undefined) was tested, and the T/C [8] was 100 % of control, the T/C [9] was 104 % of control and the T/C (dose: 400.0 mg/kg/injection, schedule: Q01DX009 (ip), vehicle: saline) was 96 % of control.
CN(CC(=O)OCc1ccccc1)C(=O)CNC(=O)OCc1ccccc1 (Cbz-Gly-[Sar]-OBn) was tested, and the T/C [4] was 95 % of control, the T/C [5] was 98 % of control and the T/C [6] was 98 % of control.
C=CCN(C)c1ccc(C(=O)OC)cc1 was tested, and the T/C (dose: 100.0 mg/kg/injection, schedule: Q01DX001 (ip), vehicle: carboxymethylcellulose (CMC)) was 102 % of control, the T/C (dose: 200.0 mg/kg/injection, schedule: Q01DX001 (ip), vehicle: carboxymethylcellulose (CMC)) was 94 % of control and the T/C (dose: 400.0 mg/kg/injection, schedule: Q01DX001 (ip), vehicle: carboxymethylcellulose (CMC)) was 100 % of control.
O=c1cc(C(F)(F)F)[nH]c2ccccc12 was tested, and the T/C (dose: 25.0 mg/kg/injection, schedule: Q04DX002 (ip), vehicle: Klucel (hydroxypropylcellulose) (HPC)) was 106 % of control and the T/C [7] was 98 % of control.
For CC1(C)C[N+](Cc2ccccc2)(Cc2ccccc2)C1, the T/C (dose: 0.78 mg/kg/injection, schedule: Q01DX009 (ip), vehicle: saline) was 100 % of control, the T/C (dose: 1.56 mg/kg/injection, schedule: Q01DX009 (ip), vehicle: saline) was 102 % of control and the T/C (dose: 3.12 mg/kg/injection, schedule: Q01DX009 (ip), vehicle: saline) was 100 % of control. The T/C (dose: 6.25 mg/kg/injection, schedule: Q01DX009 (ip), vehicle: saline) was 103 % of control, the T/C (dose: 12.5 mg/kg/injection, schedule: Q04DX003 (ip), vehicle: saline) was 112 % of control and the T/C (dose: 25.0 mg/kg/injection, schedule: Q04DX003 (ip), vehicle: saline) was 98 % of control. For the same compound, the T/C (dose: 50.0 mg/kg/injection, schedule: Q04DX003 (ip), vehicle: saline) was 97 % of control.

— PubChem BioAssay AID248 (DTP/NCI, 2004)
